Consider 15 compounds from ChEMBL document CHEMBL5625161, “Pharmacological activity and mechanism of pyrazines” (Eur J Med Chem, 2023).

≈ marks a conversion by molar mass, not a printed value. Where only a bound is given, the exact number is not on record here.

The subject of one test is H322. In words: Antiproliferative activity against human H322 cells assessed as reduction in cell viability incubated for 48 hrs by SRB assay. The note with it: NCI-H322, 48 h. It counts as functional, cell-based. (In SRB staining, fixed cells bind dye roughly in proportion to their protein.)
The subject of test [1] is A549. In words: Antiproliferative activity against human A549 cells assessed as reduction in cell viability incubated for 48 hrs by SRB assay. The note with it: A549, 48 h. It counts as functional, cell-based.
The next test deals with FaDu. The experiment in a line: Antiproliferative activity against human FaDu cells assessed as inhibition of cell growth incubated for 72 hrs by 3H-thymidine incorporation assay. It counts as functional, cell-based.
In a further test the test system is HT-29. In words: Antiproliferative activity against human HT-29 cells assessed as reduction in cell viability incubated for 24 hrs by MTT assay. It counts as functional, cell-based. The settings on record: HT-29, 24 h. (Tetrazolium dyes change colour on reduction, which living cells bring about.)
The test system of a further test is A2780. In words: Antiproliferative activity against human A2780 cells assessed as reduction in cell growth incubated for 72 hrs by MTT assay. It counts as functional, cell-based. The note with it: A2780, 72 h.
A further test deals with A-375. The experiment in a line: Cytotoxicity against human A-375 cells assessed as reduction in cell growth measured after 24 hrs by MTT assay. The settings on record: A-375, 24 h. It counts as functional, cell-based.
Another test relates to PC-3. In words: Antiproliferative activity against human PC-3 cells assessed as reduction in cell viability incubated for 24 hrs by MTT assay. It counts as functional, cell-based. The settings on record: PC-3, 24 h.
A further test has as its system HeLa. In words: Antiproliferative activity against human HeLa cells assessed as reduction in cell viability incubated for 24 hrs by MTT assay. It counts as functional, cell-based.
For another test, the target named is Coagulation factor X (Homo sapiens, UniProt P00742). In words: Inhibition of human factor Xa.
Another test deals with Acetylcholinesterase (Homo sapiens, UniProt P22303). In words: Inhibition of AChE (unknown origin).
For a further test, the target named is Cholinesterase (Homo sapiens, UniProt P06276). The experiment in a line: Inhibition of BchE (unknown origin).
In the next test the test system is SAOS-2. In words: Cytotoxicity against human SAOS-2 cells assessed as reduction in cell viability incubated for 48 hrs by MTT assay. It counts as functional, cell-based. The settings on record: SAOS-2, 48 h.
The subject of another test is U2OS. In words: Cytotoxicity against human U2OS cells assessed as reduction in cell viability incubated for 48 hrs by MTT assay. It counts as functional, cell-based.
In a further test the test system is MG-63. The experiment in a line: Cytotoxicity against human MG-63 cells assessed as reduction in cell viability incubated for 48 hrs by MTT assay. It counts as functional, cell-based. The settings on record: MG-63, 48 h.
Another test deals with SW 1116. The experiment in a line: Antiproliferative activity against human SW 1116 cells assessed as reduction in cell growth incubated for 48 hrs by MTT assay. It counts as functional, cell-based. The note with it: SW 1116, 48 h.
Test [2] has as its target Telomerase reverse transcriptase (Homo sapiens, UniProt O14746). The experiment in a line: Inhibition of telomerase (unknown origin).
The target of the next test is Histone deacetylase 2 (Homo sapiens, UniProt Q92769). The experiment in a line: Inhibition of human recombinant HDAC2.
The target in the next test is Histone deacetylase 1 (Homo sapiens, UniProt Q13547). In words: Inhibition of human recombinant HDAC1.
The target in the next test is Histone deacetylase 3 (Homo sapiens, UniProt O15379). The experiment in a line: Inhibition of human recombinant HDAC3.
A further test relates to BGC-823. In words: Cytotoxicity against human BGC-823 cells assessed as reduction in cell viability incubated for 24 hrs by MTT assay. It counts as functional, cell-based. The settings on record: BGC-823, 24 h.
The next test concerns NCI-H460. The experiment in a line: Cytotoxicity against human NCI-H460 cells assessed as reduction in cell growth incubated for 72 hrs by CCK-8 assay. It counts as functional, cell-based. The settings on record: NCI-H460, 72 h.
In another test the test system is NCI-H1299. In words: Cytotoxicity against human NCI-H1299 cells assessed as reduction in cell growth incubated for 72 hrs by CCK-8 assay. It counts as functional, cell-based. The note with it: NCI-H1299, 72 h.
Another test relates to OVCAR-5. The experiment in a line: Cytotoxicity against human OVCAR-5 cells assessed as reduction in cell growth incubated for 72 hrs by CCK-8 assay. The note with it: OVCAR-5, 72 h. It counts as functional, cell-based.
In test [3] the test system is A549. The experiment in a line: Cytotoxicity against human A549 cells assessed as reduction in cell growth incubated for 72 hrs by CCK-8 assay. It counts as functional, cell-based. The settings on record: A549, 72 h.
For a further test, the system named is HEY. In words: Cytotoxicity against human HEY cells assessed as reduction in cell growth incubated for 72 hrs by CCK-8 assay. It counts as functional, cell-based.
In another test the test system is ES-2. The experiment in a line: Cytotoxicity against human ES2 cells assessed as reduction in cell growth incubated for 72 hrs by CCK-8 assay. The note with it: ES-2, 72 h. It counts as functional, cell-based.
The test system of a further test is SK-OV-3. In words: Cytotoxicity against human SK-OV-3 cells assessed as reduction in cell growth incubated for 72 hrs by CCK-8 assay. It counts as functional, cell-based. The note with it: SK-OV-3, 72 h.
Another test deals with SW626. The experiment in a line: Cytotoxicity against human SW626 cells assessed as reduction in cell growth incubated for 72 hrs by CCK-8 assay. It counts as functional, cell-based. The note with it: SW626, 72 h.
The next test relates to Caco-2. In words: Cytotoxicity against human Caco-2 cells assessed as reduction in cell growth incubated for 72 hrs by CCK-8 assay. It counts as functional, cell-based. The note with it: Caco-2, 72 h.

Sequence of Acetylcholinesterase (P22303 whole entry): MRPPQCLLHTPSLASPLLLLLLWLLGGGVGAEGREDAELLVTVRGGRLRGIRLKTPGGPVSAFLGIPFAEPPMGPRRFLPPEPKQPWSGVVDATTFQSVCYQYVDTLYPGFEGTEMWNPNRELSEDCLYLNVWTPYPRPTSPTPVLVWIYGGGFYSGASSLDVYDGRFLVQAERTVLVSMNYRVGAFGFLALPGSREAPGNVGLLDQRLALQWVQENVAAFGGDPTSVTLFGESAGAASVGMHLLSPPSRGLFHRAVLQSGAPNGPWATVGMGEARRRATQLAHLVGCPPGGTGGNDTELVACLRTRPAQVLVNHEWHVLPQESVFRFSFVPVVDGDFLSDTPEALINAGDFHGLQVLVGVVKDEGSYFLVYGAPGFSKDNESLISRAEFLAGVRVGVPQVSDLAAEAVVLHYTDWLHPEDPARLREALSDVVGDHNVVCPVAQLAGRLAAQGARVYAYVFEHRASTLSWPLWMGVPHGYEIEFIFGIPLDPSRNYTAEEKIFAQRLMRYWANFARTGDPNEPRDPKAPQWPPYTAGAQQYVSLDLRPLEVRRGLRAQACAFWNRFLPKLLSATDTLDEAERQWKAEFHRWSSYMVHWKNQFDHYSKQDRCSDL
Sequence of Histone deacetylase 2 (Q92769 whole entry): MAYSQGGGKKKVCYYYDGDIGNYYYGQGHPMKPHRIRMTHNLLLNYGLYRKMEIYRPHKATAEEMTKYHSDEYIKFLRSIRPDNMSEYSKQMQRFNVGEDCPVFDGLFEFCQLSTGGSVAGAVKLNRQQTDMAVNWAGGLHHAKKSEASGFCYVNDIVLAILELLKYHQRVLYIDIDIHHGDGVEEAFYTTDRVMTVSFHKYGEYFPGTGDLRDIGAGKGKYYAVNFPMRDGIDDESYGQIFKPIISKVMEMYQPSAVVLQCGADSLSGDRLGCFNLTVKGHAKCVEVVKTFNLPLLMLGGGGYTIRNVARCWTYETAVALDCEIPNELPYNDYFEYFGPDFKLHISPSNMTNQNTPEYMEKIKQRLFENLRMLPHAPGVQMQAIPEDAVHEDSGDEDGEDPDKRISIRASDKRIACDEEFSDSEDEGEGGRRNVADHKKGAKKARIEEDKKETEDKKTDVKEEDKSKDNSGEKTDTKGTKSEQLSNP
Sequence of Cholinesterase (P06276 whole entry): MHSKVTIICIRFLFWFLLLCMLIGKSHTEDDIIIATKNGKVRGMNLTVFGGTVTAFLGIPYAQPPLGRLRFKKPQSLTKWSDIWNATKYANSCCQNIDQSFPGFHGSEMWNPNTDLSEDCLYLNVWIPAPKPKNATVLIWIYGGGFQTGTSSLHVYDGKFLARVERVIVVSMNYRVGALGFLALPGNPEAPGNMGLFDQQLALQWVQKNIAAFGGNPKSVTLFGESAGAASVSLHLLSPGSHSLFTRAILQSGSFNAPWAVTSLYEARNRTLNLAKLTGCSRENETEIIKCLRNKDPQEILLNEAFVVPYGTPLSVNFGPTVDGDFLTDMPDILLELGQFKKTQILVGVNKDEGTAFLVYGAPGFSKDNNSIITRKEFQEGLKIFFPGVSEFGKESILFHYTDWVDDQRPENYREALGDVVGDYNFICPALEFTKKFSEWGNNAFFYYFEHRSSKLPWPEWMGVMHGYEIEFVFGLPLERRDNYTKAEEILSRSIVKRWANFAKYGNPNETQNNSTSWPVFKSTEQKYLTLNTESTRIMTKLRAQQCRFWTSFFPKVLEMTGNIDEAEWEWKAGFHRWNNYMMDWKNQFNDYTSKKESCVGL
Sequence of Histone deacetylase 3 (O15379 whole entry): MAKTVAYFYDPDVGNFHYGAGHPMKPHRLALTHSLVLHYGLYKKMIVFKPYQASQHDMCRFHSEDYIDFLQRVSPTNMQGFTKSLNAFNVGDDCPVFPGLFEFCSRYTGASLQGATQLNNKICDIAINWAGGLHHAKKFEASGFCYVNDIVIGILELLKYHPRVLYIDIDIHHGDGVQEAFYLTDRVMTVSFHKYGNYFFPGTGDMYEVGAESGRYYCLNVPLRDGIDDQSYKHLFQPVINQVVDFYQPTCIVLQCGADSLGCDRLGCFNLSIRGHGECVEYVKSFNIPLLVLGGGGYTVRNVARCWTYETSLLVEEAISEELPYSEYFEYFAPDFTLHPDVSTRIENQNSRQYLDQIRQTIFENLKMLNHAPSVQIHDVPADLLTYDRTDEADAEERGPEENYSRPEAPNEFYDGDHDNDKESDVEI
Sequence of Histone deacetylase 1 (Q13547 whole entry): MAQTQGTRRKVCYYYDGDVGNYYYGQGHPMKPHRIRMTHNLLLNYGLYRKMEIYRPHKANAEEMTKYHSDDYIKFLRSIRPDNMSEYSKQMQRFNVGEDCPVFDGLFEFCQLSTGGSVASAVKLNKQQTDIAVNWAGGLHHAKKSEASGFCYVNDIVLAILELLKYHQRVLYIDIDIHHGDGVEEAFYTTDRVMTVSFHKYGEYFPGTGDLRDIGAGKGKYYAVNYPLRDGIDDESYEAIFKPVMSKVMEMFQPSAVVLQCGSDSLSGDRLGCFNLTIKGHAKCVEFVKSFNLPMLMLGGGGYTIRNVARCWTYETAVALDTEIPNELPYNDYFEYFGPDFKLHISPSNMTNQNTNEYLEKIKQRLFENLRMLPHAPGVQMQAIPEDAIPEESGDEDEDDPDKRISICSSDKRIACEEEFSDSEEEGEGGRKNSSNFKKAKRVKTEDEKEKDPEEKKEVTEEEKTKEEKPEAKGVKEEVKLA
Sequence of Coagulation factor X (P00742 41-179 limits assumed): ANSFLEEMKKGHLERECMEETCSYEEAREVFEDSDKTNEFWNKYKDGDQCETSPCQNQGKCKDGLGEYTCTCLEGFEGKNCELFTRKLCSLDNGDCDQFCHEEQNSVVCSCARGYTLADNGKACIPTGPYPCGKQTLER
Sequence of Coagulation factor X (P00742 235-488 limits assumed): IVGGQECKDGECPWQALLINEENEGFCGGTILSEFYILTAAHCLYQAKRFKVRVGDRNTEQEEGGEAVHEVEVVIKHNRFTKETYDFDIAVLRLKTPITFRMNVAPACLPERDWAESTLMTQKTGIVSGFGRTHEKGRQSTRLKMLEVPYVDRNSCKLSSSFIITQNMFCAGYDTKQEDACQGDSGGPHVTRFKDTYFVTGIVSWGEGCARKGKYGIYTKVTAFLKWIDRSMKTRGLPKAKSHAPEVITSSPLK
Sequence of Telomerase reverse transcriptase (O14746 whole entry): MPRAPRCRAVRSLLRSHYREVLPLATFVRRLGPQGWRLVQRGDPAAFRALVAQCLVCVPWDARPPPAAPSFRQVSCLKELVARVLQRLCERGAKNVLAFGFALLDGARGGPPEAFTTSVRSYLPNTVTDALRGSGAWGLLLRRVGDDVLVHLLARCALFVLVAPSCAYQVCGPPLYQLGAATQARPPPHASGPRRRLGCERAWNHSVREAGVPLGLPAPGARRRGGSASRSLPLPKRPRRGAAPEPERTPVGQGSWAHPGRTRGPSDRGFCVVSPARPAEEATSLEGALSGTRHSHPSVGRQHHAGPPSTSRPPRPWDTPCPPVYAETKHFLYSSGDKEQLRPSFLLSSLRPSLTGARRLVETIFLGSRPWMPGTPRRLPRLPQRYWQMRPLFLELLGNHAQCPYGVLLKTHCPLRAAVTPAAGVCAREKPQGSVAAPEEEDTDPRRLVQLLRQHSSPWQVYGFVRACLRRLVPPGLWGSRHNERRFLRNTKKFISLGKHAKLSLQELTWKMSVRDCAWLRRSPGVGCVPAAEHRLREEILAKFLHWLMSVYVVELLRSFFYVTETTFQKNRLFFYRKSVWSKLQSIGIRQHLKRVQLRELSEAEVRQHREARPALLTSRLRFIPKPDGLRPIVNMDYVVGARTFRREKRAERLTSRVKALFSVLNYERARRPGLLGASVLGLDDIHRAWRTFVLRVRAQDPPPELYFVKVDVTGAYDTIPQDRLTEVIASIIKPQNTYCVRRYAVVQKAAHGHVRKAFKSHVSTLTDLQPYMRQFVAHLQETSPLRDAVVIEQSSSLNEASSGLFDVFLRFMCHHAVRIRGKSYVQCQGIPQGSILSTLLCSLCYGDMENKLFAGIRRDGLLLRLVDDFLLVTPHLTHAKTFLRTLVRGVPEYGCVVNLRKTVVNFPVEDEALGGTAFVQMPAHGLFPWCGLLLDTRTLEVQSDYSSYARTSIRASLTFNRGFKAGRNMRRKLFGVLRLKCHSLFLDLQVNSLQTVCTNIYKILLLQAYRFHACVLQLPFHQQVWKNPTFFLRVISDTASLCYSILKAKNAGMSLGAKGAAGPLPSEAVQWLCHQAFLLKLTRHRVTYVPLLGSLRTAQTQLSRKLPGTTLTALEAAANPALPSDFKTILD

`CCn1c(-c2ccc(OC)cc2)cn2nc(-c3ccc(OC)cc3)cc2c1=O`: the IC50 (commonly the concentration needed to halve the response being measured) worked out at 50.6 µM with H322 and 49.7 µM with A549 [1].
Take `C[C@H]1[C@H](C)CC[C@]2(C)CC[C@]3(C)C(=CC(=O)[C@@H]4[C@@]5(C)Cc6nccnc6[C@](C)(C(=O)OCc6ccccc6)[C@@H]5CC[C@]43C)[C@H]12`: the IC50 was greater than 30 µM in the test with FaDu, 12.2 µM in the test with HT-29, 13.7 µM with A2780 and 2.1 µM in the test on A-375.
For the compound `CN(CCCN(C)CCN1C(=O)c2cccc3c2c(cc2nccnc23)C1=O)CCN1C(=O)c2cccc3c2c(cc2nccnc23)C1=O`, the IC50 with PC-3 stood at 0.08 µM; in the test with HeLa, 0.08 µM; with HT-29 it was 0.02 µM.
As for `O=C1CN(S(=O)(=O)c2ccc3cc(Cl)ccc3c2)CC2(CO)NC3(CCN(c4ccncc4)CC3)CN12` (centres undefined), the IC50 on Coagulation factor X was 0.00061 µM.
For `Cc1cccc(-c2cnc3cccnc3n2)c1`, the IC50 against Acetylcholinesterase came out at 0.89 µM; against Cholinesterase, 0.5 µM.
For `Cc1nc(C)c(C)nc1C` [LIGUSTRAZINE], the IC50 with SAOS-2 is 24.7 µg/mL (≈ 181 µM); with U2OS it was 54.7 µg/mL (≈ 402 µM); in the test with MG-63, 10.3 µg/mL (≈ 75.6 µM).
For the compound `CC1c2nccnc2C[C@]2(C)[C@H]3C(=O)C=C4[C@@H]5[C@@H](C)[C@H](C)CC[C@]5(C)CC[C@@]4(C)[C@]3(C)CC[C@@H]12` (some centres undefined), the IC50 in the test with FaDu is greater than 30 µM; in the test on HT-29, 22.7 µM; in the test with A2780, 15.7 µM; with A-375, 12 µM.
On to `Fc1cccc(-c2cnc3cccnc3n2)c1`, for which the IC50 against Acetylcholinesterase is 0.8 µM; at Cholinesterase it was 0.583 µM.
As to `Fc1ccc(CSc2nnc(-c3cnccn3)n2-c2ccccc2)cc1`, the 50% inhibitory concentration (IC50) in the test with SW 1116 was 4.12 µM; in test [2], 15 µM.
As to `CN1CCN(c2cnc(C(=O)Nc3cc(-c4cccs4)ccc3[N+](=O)[O-])cn2)CC1`, the IC50 was 0.26 µM at Histone deacetylase 2, 0.07 µM on Histone deacetylase 1 and 6.1 µM on Histone deacetylase 3.
For the compound `O=C1c2cccc3c2c(cc2nccnc23)C(=O)N1CCNCCCNCCN1C(=O)c2cccc3c2c(cc2nccnc23)C1=O`, the values for the IC50 in the test on PC-3, with HeLa and in the test on HT-29 were 0.53 µM, 0.2 µM and 0.02 µM, respectively.
As for `CC(C)(O)CCC[C@](C)(O)C1CC[C@]2(C)[C@@H]1[C@H](O)C[C@@H]1[C@@]3(C)Cc4nccnc4C(C)(C)[C@@H]3CC[C@]12C` (some centres undefined), in the test on BGC-823, the 50% inhibitory concentration (IC50) turned out to be 11.5 µM.
Turning to `c1cn2cc(-c3ccc4cn[nH]c4c3)nc(Nc3ccc(N4CCOCC4)cc3)c2n1` [ENTOSPLETINIB], the IC50 in the test with NCI-H460 is greater than 10 µM; in the test with NCI-H1299, 6.26 µM; with OVCAR-5, 8.3 µM; with A549 [3], greater than 10 µM; in the test on HEY it was greater than 10 µM; with ES-2, greater than 10 µM. Moreover, the IC50 was greater than 10 µM with SK-OV-3, greater than 10 µM in the test on SW626 and 6.86 µM in the test on Caco-2.
For the compound `Cn1cc(CCN2CCN(c3cnc(C(=O)Nc4cc(-c5cccs5)ccc4[N+](=O)[O-])cn3)CC2)c2ccccc21`, the concentration for half-maximal inhibition (IC50) at Histone deacetylase 2 came out at 2.47 µM; at Histone deacetylase 1 it was 0.26 µM; on Histone deacetylase 3, 1 µM.
As to `O=c1c2cc(-c3ccc(Cl)cc3)nn2cc(-c2ccccc2)n1CCN1CCOCC1`, the IC50 in the test on H322 was found to be 34.7 µM; in the test with A549 [1], 24.2 µM.
